Experimental data published in US9422267B2, “Fused pyrimidine compounds and use thereof” (Medivation Technologies, Inc., priority 2012, dated 2016).
pIC50: −log10 of the molar value. Values joined by “and” are separate entries in the source; they are usually repeats but may differ in a detail not shown here. Equal entries are not always repeated. Where two headings read alike, the source gives them in different places.

Assays:
HT-29 = assay: Cell Titer-Glo cell viability: HT-29; type: cell-based; settings: Homo sapiens, HT-29, 72 h
Method: (§1) This assay quantitates the ATP present in order to determine the number of viable cells in culture. Briefly, the compounds were incubated with the cells for 72 h, followed by cell lysis. The resulting luminescent signal is proportional to the amount of ATP present and, therefore, directly proportional to the number of cells present in culture.
(§2) Compound nos. […] These cell lines are derived from human lung carcinoma, colon adenocarcinoma, colon adenocarcinoma, colon carcinoma, acute promyelocytic leukemia, colon adenocarcinoma, colon adenocarcinoma (from metastatic site lymph node), respectively.
(§3) Compounds 2b, 5, 6b and 10a were tested along with derivatives in viability assays as described above by Caliper LifeSciences Systems (Hanover, Md.), in A549, HCT-15, HCT-116, MCF-7, MDA-MB-231, OVCAR3, T47D, COLO205, HT-29, BT-20, HCC1187, HL-60, MDA-MB-175, SW-620, and UACC812 cells.

HL-60 = assay: Cell Titer-Glo cell viability: HL-60; type: cell-based, human; settings: Homo sapiens, HL-60, 72 h
Method: as §1, §2, §3

HCC 1187 = assay: Cell Titer-Glo cell viability: HCC 1187; type: cell-based; settings: Homo sapiens
Method: (§4) Compound nos. […] This panel of cell lines includes an ER− breast carcinoma, primary breast ductal carcinoma, prostate adenocarcinoma, mammary adenocarcinoma, mammary ductal carcinoma, mammary ductal carcinoma, ovary adenocarcinoma, ER+ breast carcinoma, ER-HER2+ mammary ductal carcinoma and an ER+ mammary ductal carcinoma, respectively.
as §1, §3

T47D = assay: Cell Titer-Glo cell viability: T47D; type: cell-based; settings: Homo sapiens, breast cancer
Method: as §4, §1, §3

TRKC (NTRK3) = TRKC (NTRK3) (Homo sapiens, UniProt Q16288); assay: Caliper kinase profiling: TRKC (NTRK3); settings: for inhibition of TrkC in panel of 11 kinases: 0.01 μM; for inhibition at 0.01 µM: read-out: Average % Inh @ 10 nM
TRKC (NTRK3), sequence (Q16288 32-839): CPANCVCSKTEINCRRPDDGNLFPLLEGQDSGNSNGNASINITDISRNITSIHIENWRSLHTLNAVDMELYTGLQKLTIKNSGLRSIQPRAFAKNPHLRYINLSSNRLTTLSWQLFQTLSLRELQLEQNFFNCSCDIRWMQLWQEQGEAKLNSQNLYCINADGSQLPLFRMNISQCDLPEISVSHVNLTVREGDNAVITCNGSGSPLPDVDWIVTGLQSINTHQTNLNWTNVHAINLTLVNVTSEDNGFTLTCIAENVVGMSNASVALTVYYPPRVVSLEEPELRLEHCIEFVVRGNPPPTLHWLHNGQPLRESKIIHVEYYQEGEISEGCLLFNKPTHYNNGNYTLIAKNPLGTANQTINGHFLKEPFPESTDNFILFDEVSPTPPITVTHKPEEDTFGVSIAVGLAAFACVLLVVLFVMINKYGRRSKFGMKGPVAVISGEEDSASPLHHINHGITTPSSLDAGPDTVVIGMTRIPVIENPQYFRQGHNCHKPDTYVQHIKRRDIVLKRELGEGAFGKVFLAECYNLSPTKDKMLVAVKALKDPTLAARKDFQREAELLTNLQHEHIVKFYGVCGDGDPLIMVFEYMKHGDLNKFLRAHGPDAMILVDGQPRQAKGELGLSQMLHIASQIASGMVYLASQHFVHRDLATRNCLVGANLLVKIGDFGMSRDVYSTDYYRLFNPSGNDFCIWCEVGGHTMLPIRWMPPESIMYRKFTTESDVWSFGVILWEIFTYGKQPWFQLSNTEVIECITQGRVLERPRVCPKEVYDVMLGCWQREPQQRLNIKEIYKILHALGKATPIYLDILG
Method: (§5) The compound was tested at concentrations of 1.0×10^−8 and 1.0×10^−9 M in the RapidKinase192™ panel in duplicate. […] The screening was performed using the Caliper EZReader2, a 4-sipper LabChip, and ProfilerPro Kinase Selectivity Assay Kits 1 and 2. The assay measures the conversion of a fluorescent peptide substrate to a phosphorylated product. Briefly, the reaction mixture was introduced through a capillary sipper onto the microfluidic chip, where the substrate and product were electrophoretically separated and detected by laser-induced fluorescence. The time-dependent fluorescence signal indicates the extent of the reaction.
(§6) The kinases tested were AurA, AurB, AurC, AXL, FAK2, IGF1R, InsR, Mer, MET, TrkB and TrkC.
(§7) The assays were conducted using the Caliper LabChip 3000 and a 12-sipper LabChip as described above.

BT-20 = assay: Cell Titer-Glo cell viability: BT-20; type: cell-based; settings: Homo sapiens
Method: as §4, §1, §3

IGF1R [1] = target: T1, IGF1R (Homo sapiens, UniProt P08069); assay: In vitro IGF-1R enzymatic assay (ADP-Glo kinase assay); type: biochemical; parameters: purchased Millipore 14-802; settings: for pIC50: read-out: IC50; for Hill Slope N1 / IC50 / Hill Slope N2: IGF-1R, ATP 100 μM
T1 sequence (P08069 31-1367): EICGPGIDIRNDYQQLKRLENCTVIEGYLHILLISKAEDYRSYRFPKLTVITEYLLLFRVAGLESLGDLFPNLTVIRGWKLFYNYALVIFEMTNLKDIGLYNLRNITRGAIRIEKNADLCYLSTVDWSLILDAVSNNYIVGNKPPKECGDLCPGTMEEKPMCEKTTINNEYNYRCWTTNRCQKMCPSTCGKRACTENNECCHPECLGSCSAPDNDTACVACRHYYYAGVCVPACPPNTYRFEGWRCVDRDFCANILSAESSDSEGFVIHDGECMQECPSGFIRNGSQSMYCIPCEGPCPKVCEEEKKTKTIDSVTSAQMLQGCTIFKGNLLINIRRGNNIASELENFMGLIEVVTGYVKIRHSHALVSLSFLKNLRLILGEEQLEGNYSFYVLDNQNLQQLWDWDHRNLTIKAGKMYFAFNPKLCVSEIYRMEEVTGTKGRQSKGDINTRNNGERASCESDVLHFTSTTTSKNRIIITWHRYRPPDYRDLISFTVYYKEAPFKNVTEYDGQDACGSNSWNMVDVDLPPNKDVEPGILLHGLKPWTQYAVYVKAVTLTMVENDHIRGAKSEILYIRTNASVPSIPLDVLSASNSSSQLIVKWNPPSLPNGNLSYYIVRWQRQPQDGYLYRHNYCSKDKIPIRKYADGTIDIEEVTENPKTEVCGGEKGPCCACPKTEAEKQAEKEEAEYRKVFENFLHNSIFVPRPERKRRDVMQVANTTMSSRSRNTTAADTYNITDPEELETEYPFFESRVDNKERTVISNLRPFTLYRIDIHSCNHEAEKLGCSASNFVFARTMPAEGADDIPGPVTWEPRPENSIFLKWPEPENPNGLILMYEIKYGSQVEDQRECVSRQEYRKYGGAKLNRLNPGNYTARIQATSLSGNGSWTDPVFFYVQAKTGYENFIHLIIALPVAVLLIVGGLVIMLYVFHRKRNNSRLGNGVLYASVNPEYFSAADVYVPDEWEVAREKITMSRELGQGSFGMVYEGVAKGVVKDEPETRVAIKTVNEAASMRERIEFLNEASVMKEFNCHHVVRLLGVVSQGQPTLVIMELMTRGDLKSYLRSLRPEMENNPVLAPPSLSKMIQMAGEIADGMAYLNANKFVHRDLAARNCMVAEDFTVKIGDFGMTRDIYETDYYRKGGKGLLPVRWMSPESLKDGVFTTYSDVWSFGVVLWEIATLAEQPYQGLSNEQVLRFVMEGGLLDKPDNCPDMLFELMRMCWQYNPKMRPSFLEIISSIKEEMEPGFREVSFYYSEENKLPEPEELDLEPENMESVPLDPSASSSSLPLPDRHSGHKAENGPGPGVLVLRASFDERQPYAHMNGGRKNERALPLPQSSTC
Method: IC50 values of the compounds of the invention against IGF-1R and IR were measured in vitro using an ADP-Glo kinase assay Kit (Promega). […] Kinase reactions in both assays were conducted at 30° C. for 20 min with increasing concentrations of compounds of the invention.

MDA MB 175 = assay: Cell Titer-Glo cell viability: MDA MB 175; type: cell-based
Method: as §4, §1, §3
The inhibitory effects of Compound 8a were tested in two cell lines.

NTRK2 (TRKB) = NTRK2 (TRKB) (Homo sapiens, UniProt Q16620); assay: Caliper kinase profiling: NTRK2 (TRKB); settings: for inhibition of TrkB in panel of 11 kinases: 0.01 μM; for inhibition at 0.01 µM: read-out: Average % Inh @ 10 nM
NTRK2 (TRKB), sequence (Q16620 32-822): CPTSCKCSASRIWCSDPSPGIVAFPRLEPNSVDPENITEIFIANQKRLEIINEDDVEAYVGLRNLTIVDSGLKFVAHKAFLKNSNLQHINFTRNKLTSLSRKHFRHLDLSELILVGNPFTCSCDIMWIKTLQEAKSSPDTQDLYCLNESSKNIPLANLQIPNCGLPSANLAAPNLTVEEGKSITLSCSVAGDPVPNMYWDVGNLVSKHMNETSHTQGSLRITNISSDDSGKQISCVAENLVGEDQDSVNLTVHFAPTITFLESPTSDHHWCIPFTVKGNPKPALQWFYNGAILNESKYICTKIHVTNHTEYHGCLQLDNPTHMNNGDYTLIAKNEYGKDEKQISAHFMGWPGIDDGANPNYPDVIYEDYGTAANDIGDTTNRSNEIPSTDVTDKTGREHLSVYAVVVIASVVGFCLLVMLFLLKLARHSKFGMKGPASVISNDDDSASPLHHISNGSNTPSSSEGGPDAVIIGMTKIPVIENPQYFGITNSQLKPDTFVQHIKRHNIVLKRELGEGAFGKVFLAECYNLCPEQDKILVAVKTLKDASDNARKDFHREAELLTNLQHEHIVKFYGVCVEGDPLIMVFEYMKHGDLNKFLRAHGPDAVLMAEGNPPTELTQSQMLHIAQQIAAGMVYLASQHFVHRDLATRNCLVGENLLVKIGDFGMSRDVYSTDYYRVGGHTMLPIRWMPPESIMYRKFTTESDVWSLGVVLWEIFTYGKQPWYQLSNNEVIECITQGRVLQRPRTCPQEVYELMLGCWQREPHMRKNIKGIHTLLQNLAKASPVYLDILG
Method: as §5, §6, §7

MET = target: T2, MET (Homo sapiens, UniProt P08581); assay: Caliper kinase profiling: MET; type: biochemical; settings: for inhibition at 0.01 µM: 10 nM, read-out: Average % Inh @ 10 nM
T2 construct: purchased Caliper LifeSciences (ProfilerPro Kinase Selectivity Assay Kits)
T2 sequence (P08581 25-1390): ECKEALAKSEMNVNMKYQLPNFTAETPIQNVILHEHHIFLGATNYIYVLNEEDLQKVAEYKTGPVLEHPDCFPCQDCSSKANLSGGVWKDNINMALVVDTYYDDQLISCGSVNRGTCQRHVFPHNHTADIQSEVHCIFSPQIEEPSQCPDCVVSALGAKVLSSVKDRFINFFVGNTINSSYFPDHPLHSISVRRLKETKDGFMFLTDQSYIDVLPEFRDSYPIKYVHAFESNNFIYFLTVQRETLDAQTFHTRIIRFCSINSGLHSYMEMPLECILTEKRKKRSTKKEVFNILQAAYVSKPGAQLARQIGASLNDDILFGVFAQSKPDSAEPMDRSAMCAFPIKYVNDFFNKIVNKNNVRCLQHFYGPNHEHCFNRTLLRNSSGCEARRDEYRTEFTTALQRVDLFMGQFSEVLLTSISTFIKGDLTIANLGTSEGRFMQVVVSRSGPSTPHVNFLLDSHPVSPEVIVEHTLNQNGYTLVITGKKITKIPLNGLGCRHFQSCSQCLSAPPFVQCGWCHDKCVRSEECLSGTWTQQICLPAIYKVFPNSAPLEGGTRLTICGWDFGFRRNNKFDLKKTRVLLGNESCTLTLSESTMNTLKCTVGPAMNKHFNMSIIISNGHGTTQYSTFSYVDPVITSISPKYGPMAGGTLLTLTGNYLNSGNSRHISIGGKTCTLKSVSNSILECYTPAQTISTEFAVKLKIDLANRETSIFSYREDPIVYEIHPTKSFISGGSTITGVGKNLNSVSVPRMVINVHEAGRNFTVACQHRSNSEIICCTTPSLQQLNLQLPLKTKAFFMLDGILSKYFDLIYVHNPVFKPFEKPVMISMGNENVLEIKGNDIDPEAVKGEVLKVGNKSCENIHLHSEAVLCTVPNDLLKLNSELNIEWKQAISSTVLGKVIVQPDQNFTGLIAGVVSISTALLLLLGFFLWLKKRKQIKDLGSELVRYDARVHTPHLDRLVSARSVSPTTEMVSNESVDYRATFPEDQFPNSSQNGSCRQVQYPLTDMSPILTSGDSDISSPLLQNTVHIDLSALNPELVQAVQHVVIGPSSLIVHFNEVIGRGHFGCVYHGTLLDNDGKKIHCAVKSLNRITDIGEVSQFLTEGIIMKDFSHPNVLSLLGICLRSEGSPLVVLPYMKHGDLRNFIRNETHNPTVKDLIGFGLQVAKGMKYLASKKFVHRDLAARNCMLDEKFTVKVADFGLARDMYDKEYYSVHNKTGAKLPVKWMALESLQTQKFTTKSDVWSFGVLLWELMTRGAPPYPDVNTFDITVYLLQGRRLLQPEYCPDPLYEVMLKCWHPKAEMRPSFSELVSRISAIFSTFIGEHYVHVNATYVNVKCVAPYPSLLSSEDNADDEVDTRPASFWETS

AurB = AurB (Homo sapiens, UniProt Q96GD4); assay: Caliper kinase profiling: AurB
AurB, sequence (Q96GD4 whole entry): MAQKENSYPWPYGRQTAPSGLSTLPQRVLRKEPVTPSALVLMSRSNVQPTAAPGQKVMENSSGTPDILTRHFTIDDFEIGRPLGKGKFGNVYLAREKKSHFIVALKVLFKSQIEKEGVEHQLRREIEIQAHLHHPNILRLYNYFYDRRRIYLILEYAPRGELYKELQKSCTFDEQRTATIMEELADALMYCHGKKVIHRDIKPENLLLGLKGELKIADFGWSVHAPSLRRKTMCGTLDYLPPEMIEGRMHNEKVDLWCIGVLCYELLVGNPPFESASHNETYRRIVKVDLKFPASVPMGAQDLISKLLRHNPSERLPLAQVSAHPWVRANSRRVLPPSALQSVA
Method: as §5, §7

Mer = target: T3, Mer (Homo sapiens, UniProt Q12866); assay: Caliper kinase profiling: Mer; type: biochemical; settings: for inhibition at 0.01 µM: 10 nM, read-out: Average % Inh @ 10 nM
T3 construct: purchased Caliper LifeSciences (ProfilerPro Kinase Selectivity Assay Kits)
T3 sequence (Q12866 21-999): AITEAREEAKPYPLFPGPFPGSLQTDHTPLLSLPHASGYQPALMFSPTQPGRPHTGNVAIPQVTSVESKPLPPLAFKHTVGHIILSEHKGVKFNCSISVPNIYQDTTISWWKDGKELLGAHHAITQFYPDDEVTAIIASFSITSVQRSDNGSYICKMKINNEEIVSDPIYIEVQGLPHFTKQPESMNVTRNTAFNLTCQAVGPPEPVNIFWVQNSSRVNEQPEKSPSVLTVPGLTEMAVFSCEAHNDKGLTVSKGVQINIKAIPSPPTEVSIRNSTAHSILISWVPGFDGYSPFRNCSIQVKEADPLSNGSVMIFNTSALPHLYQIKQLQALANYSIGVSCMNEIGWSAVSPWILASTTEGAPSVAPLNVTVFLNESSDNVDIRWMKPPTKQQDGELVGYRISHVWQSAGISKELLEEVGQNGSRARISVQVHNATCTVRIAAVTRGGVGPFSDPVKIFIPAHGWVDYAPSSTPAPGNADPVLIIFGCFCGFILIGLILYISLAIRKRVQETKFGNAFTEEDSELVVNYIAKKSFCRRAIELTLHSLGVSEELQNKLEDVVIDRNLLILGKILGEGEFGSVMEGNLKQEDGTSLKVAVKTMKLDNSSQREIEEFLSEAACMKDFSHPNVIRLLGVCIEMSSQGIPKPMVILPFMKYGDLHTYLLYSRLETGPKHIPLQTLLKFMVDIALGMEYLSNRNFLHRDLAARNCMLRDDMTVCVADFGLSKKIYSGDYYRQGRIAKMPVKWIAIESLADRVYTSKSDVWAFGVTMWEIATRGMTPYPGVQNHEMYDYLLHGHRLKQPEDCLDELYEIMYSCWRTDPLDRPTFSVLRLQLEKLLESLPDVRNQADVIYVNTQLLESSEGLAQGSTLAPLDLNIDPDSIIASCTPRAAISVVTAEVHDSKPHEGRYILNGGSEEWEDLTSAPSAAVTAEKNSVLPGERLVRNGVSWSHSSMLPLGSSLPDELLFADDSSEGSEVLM

IGF1R [2] = target: T1, IGF1R; assay: Caliper kinase profiling: IGF1R; type: biochemical; parameters: purchased Caliper LifeSciences (ProfilerPro Kinase Selectivity Assay Kits); settings: for inhibition at 0.01 µM: 10 nM, read-out: Average % Inh @ 10 nM
Method: as §5

[3] = HT-29, colon adenocarcinoma, 72 h incubation, Cell Titer-Glo
[4] = HL60, promyelocytic leukemia, 72 h incubation, Cell Titer-Glo
[5] = HCC1187, HCC-1187, breast cancer, 72 h incubation, Cell Titer-Glo
[6] = 72 h incubation, Cell Titer-Glo
[7] = BT-20, breast cancer, 72 h incubation, Cell Titer-Glo
[8] = MDA-MB-175, breast cancer, 72 h incubation, Cell Titer-Glo
[9] = HL60, promyelocytic leukemia (second entry of the table), 72 h
[10] = HL-60, promyelocytic leukemia, 72 h
[11] = 100 nM, read-out: Average % Inh @ 100 nM
[12] = 1 μM, read-out: Average % Inh @ 1 μM
[13] = read-out: Average % Inh @ 100 nM
[14] = 1 nM, read-out: Average % Inh @ 1 nM

| pIC50 (HT-29; [3]) | pIC50 (HL-60; [4]) | pIC50 (HCC 1187; [5]) | pIC50 (T47D; [6]) | inhibition of TrkC in panel of 11 kinases (TRKC (NTRK3)) | pIC50 (BT-20; [7]) | pIC50 (IGF1R [1]; activated IGF-1R) | inhibition of TrkB in panel of 11 kinases (NTRK2 (TRKB)) | pIC50 (HT-29; HT-29, colon cancer, 72 h) | pIC50 (HL-60; [9]) | pIC50 (HL-60; [10]) | inhibition at 0.01 µM (MET) | inhibition at 0.01 µM (TRKC (NTRK3)) | Hill Slope N1 (IGF1R [1]; run N1) | IC50 (IGF1R [1]; run N1, read-out: IC50 (M) N1) | Hill Slope N2 (IGF1R [1]; run N2) | IC50 (IGF1R [1]; run N2, read-out: IC50 (M) N2) | inhibition at 0.01 µM (Mer) | inhibition at 0.01 µM (IGF1R [2]) | Compound | pIC50 (MDA MB 175; [8]) | other results |
| --- | --- | --- | --- | --- | --- | --- | --- | --- | --- | --- | --- | --- | --- | --- | --- | --- | --- | --- | --- | --- | --- |
| > 8.00 | > 6.00 | > 6.00 | > 6.00 | strongly inhibited | 6.00 | 8.19 | strongly inhibited |  |  |  |  |  |  |  |  |  |  |  | O=C(Nc1cnccn1)C1CCCN1c1nc2c(c(Nc3cc(C4CC4)[nH]n3)n1)CCC2 (single isomer, unassigned) [Compound 6b] | > 6.00 |  |
|  | > 6.00 | 7.00 | 6.00 |  | 6.00 | 8.21 |  | 6.30 | > 8.00 | > 5.00 | < 39% | > 60% | 1.195 | 7.24e-09 M | 1.384 | 5.29e-09 M | 40 to 59% | < 39% | O=C(Nc1ccc(F)nc1)C1CCCN1c1nc2c(c(Nc3cc(C4CC4)[nH]n3)n1)CCC2 (single isomer, unassigned) [Compound 2b, 1-(4-(5-cyclopropyl-1H-pyrazol-3-ylamino)-6,7-dihydro-5H-cyclopenta[d]pyrimidin-2-yl)-N-(6-fluoropyridin-3-yl)pyrrolidine-2-carboxamide] | > 5.00 | inhibition at 0.1 µM (MET; [11]): > 60%; inhibition at 1 µM (MET; [12]): > 60%; inhibition at 0.01 µM (AurB; read-out: Average % Inh @ 10 nM): 40 to 59%; inhibition at 0.1 µM (AurB; [13]): > 60%; inhibition at 1 µM (AurB; read-out: Average % Inh @ 1 μM): > 60%; inhibition at 0.1 µM (TRKC (NTRK3); [13]): > 60%; inhibition at 1 µM (TRKC (NTRK3); read-out: Average % Inh @ 1 μM): > 60%; inhibition at 0.1 µM (Mer; [11]): > 60%; inhibition at 1 µM (Mer; [12]): > 60%; inhibition at 0.1 µM (IGF1R [2]; [11]): 40 to 59%; inhibition at 1 µM (IGF1R [2]; [12]): > 60%; inhibition at 0.01 µM (NTRK2 (TRKB)): > 60%; inhibition at 0.1 µM (NTRK2 (TRKB); [13]): > 60%; inhibition at 1 µM (NTRK2 (TRKB); read-out: Average % Inh @ 1 μM): > 60% |
| 8.00 | > 7.00 | > 6.00 | > 6.00 | strongly inhibited | > 5.00 | 7.89 and 7.77 | strongly inhibited |  |  |  |  |  |  |  |  |  |  |  | O=C(Nc1ccc(F)nc1)C1CCN1c1nc2c(c(Nc3cc(C4CC4)[nH]n3)n1)CCC2 (racemic) [Compound 5, 1-(4-(5-cyclopropyl-1H-pyrazol-3-ylamino)-6,7-dihydro-5H-cyclopenta[d]pyrimidin-2-yl)-N-(6-fluoropyridin-3-yl)azetidine-2-carboxamide] | 6.00 | inhibition at 0.03 µM (IGF1R [1]; activated IGF-1R, 30 nM, average, read-out: % Inh @ 30 nM Avg): 66% |
|  |  |  |  |  |  | 8.29 |  | > 8.00 | > 8.00 | 8.00 | 40 to 59% | > 60% | 1.042 | 3.11e-09 M | 1.307 | 5.49e-09 M | > 60% | > 60% | CC(C)c1cc(Nc2nc(N3CCCC3C(=O)Nc3ccc(F)nc3)nc3c2CCC3)n[nH]1 (single isomer, unassigned) [Compound 8b] |  | pIC50 (HT-29; HT29, colon adenocarcinoma (second entry of the table), 72 h): > 8.00; pIC50 (HCC 1187; HCC1187, breast cancer, 72 h): > 5.00; inhibition at 0.001 µM (MET; [14]): < 39%; pIC50 (T47D; 72 h): > 6.00; pIC50 (AurB): 7.13; pIC50 (TRKC (NTRK3)): 8.52; inhibition at 0.001 µM (TRKC (NTRK3); read-out: Average % Inh @ 1 nM): > 60%; pIC50 (BT-20; BT-20, BT20, breast cancer, 72 h): > 5.00; pIC50 (MDA MB 175; MDAMB175, breast cancer, 72 h): > 5.00; inhibition at 0.001 µM (Mer; [14]): < 39%; pIC50 (Mer; 8 concentrations 3.0×10^−7 to 1.0×10^−10 M): 8.42; inhibition at 0.001 µM (IGF1R [2]; [14]): < 39%; pIC50 (NTRK2 (TRKB)): 7.91; inhibition at 0.001 µM (NTRK2 (TRKB); read-out: Average % Inh @ 1 nM): > 60%; inhibition at 0.01 µM (NTRK2 (TRKB)): > 60% |
